Source: ChEMBL document CHEMBL4842388, “Discovery of Potent, Selective, and Brain-Penetrant Apoptosis Signal-Regulating Kinase 1 (ASK1) Inhibitors that Modulate Brain Inflammation In Vivo” (J Med Chem, 2021)
Values after ≈ are worked out from the molar mass of the structure shown. Active and inactive are the calls of the source. No cut-off for these calls is given here.

How the values were obtained:
[1] = target: T1, Mitogen-activated protein kinase kinase kinase 5 (Mus musculus) (UniProt O35099); assay: In vivo inhibition of ASK1 in Tg4510 mouse model of Alzheimer's disease assessed as reduction in IL-1beta levels in cortex at 3 to 30 mg/kg, po BID for 3 days measured after 4 hrs post last dose by ELISA; type: functional, organism-based; conditions: dose 3-30 mg/kg, time 3.0 day
T1 sequence (whole entry): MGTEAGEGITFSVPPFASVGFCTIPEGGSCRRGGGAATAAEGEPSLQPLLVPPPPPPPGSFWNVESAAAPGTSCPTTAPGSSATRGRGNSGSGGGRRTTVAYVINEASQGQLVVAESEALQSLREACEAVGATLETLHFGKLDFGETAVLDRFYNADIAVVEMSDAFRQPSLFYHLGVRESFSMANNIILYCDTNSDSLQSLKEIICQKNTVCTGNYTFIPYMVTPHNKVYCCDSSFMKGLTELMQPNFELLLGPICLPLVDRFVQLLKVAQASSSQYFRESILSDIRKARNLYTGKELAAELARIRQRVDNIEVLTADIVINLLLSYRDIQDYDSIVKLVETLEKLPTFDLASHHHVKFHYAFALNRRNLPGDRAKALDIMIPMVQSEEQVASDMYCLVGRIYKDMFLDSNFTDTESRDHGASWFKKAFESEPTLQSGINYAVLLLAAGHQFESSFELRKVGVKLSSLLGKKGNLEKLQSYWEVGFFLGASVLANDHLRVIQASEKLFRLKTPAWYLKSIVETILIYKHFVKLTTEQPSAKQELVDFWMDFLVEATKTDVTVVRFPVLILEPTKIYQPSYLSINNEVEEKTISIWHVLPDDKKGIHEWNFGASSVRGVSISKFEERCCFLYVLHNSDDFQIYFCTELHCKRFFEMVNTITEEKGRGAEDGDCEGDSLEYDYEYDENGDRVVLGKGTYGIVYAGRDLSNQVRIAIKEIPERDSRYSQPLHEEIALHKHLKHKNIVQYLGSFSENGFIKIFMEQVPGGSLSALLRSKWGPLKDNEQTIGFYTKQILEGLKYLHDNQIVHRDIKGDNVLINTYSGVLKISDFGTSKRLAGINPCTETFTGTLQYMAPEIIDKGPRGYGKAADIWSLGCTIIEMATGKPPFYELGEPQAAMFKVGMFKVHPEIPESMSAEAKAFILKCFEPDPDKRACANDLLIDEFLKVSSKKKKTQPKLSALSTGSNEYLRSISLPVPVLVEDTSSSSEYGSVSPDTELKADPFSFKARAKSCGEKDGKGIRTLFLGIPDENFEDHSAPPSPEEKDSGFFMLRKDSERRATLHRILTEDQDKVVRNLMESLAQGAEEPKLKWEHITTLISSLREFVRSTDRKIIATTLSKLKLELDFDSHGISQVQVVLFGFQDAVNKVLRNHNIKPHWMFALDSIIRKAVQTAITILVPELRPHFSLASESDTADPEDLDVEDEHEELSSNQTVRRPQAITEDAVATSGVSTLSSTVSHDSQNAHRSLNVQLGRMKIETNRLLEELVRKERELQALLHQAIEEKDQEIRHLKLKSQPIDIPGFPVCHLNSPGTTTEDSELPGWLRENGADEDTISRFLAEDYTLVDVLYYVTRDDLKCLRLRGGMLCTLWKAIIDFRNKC

[2] = target: T1, Mitogen-activated protein kinase kinase kinase 5 (Mus musculus); assay: In vivo inhibition of ASK1 in Tg4510 mouse model of Alzheimer's disease assessed as reduction in MCP-1 levels in cortex at 3 to 30 mg/kg, po BID for 3 days measured after 4 hrs post last dose by ELISA; type: functional, organism-based; conditions: dose 3-30 mg/kg, time 3.0 day
[3] = target: T1, Mitogen-activated protein kinase kinase kinase 5 (Mus musculus); assay: In vivo inhibition of ASK1 in Tg4510 mouse model of Alzheimer's disease assessed as reduction in KC/GRO levels in cortex at 3 to 30 mg/kg, po BID for 3 days measured after 4 hrs post last dose by ELISA; type: functional, organism-based; conditions: dose 3-30 mg/kg, time 3.0 day
Adenosine receptor A2a = Adenosine receptor A2a (Homo sapiens, UniProt P29274); assay: Inhibition of A2A receptor (unknown origin)
[4] = target: 5-hydroxytryptamine receptor 2B (Homo sapiens, UniProt P41595); assay: Inhibition of 5HT2B receptor (unknown origin)
[5] = target: T2, Mitogen-activated protein kinase kinase kinase 5 (Homo sapiens, UniProt Q99683); assay: Inhibition of full-length human ASK1 expressed in HEK293T cells assessed as reduction in autophosphorylation of ASK1 at […] residue incubated for 1 hr; type: cell-based
T2 sequence (Q99683 whole entry): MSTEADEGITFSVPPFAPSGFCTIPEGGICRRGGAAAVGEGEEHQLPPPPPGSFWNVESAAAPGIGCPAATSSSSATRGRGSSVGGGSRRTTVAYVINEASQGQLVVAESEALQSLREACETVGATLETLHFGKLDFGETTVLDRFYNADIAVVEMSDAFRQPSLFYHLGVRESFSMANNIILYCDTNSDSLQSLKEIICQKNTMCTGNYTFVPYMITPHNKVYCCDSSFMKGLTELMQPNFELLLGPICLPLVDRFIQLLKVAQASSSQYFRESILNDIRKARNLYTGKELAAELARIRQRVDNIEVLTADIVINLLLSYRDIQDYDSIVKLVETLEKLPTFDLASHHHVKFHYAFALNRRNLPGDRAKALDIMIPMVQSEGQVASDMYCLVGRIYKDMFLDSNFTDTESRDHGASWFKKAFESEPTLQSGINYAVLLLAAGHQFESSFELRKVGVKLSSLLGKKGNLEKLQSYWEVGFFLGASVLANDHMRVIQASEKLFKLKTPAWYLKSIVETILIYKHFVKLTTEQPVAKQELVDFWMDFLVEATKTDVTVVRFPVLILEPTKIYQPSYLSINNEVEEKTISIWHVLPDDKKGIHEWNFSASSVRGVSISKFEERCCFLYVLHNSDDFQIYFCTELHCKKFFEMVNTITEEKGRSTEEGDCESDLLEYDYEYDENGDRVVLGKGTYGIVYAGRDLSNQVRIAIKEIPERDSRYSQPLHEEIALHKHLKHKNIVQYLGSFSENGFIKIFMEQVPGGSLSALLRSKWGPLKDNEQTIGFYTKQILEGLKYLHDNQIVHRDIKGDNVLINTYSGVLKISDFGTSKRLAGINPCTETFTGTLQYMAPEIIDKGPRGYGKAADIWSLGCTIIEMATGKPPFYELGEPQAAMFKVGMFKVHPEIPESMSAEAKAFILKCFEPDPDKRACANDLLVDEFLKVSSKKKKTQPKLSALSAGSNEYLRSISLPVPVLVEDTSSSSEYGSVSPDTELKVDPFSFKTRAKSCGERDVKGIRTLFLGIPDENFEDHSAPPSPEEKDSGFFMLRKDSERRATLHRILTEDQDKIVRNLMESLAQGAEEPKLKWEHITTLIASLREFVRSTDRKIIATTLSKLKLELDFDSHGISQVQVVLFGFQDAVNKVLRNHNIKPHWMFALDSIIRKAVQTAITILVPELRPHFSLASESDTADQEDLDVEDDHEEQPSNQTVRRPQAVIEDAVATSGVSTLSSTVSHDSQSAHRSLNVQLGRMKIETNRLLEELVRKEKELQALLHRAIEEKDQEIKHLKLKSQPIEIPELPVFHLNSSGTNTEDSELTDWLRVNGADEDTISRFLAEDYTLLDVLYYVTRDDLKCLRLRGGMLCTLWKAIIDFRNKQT

[6] = target: T2, Mitogen-activated protein kinase kinase kinase 5; assay: Inhibition of ASK1 (unknown origin) using myelin basic protein as substrate preincubated for 20 mins followed by 33P-ATP addition and measured after 2 hrs
[7] = Microsomal stability in rat liver microsomes; type: ADME, Microsome; conditions: read-out: Stabilty
[8] = Efflux ratio of apparent permeability across basolateral to apical side over apical to basolateral side in MDCK-MDR1 cells at 1 uM after 2 hrs; type: ADME, cell-based, Canis lupus familiaris; conditions: dog
[9] = Apparent permeability from apical to basolateral side in MDCK- MDR1 cells at 1 uM after 2 hrs; type: ADME, cell-based, Canis lupus familiaris; conditions: dog
[10] = Solubility of compound at pH 6.8; type: physicochemical; conditions: buffer
[11] = Microsomal stability in human liver microsomes; type: ADME, Microsome; conditions: read-out: Stabilty

Chain of 5-hydroxytryptamine receptor 2B (P41595 whole entry): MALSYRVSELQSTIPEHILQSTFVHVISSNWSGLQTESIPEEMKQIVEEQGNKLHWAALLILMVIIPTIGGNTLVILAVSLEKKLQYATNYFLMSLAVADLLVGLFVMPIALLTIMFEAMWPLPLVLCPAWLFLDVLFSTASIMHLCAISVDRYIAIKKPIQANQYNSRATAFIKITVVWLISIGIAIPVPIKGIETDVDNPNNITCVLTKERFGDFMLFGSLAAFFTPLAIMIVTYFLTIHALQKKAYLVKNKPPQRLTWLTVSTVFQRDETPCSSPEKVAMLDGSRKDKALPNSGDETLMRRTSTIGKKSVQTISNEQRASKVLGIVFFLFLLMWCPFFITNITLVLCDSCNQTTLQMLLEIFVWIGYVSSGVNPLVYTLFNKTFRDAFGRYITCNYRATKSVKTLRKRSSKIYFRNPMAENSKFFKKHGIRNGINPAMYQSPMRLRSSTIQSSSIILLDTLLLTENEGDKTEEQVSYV
Chain of Adenosine receptor A2a (P29274 whole entry): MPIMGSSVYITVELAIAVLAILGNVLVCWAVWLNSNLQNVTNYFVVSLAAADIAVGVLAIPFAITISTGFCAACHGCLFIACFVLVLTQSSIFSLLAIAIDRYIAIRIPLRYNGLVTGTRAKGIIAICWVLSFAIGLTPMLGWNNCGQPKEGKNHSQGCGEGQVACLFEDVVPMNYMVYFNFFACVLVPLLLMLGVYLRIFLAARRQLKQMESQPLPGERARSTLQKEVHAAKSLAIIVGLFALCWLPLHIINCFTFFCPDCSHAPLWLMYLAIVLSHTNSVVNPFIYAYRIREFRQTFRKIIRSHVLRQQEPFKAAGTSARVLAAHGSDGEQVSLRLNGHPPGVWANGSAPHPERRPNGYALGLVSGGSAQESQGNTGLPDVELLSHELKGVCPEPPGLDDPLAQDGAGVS

Row | inhibition [1] | inhibition [2] | inhibition [3] | IC50 (Adenosine receptor A2a) [nM] | IC50 [4] [nM] | IC50 [5] [nM] | IC50 [6] [nM] | CLint scaled [7] [mL/min/kg] | efflux ratio at 2 h, 1 µM [8] | Papp A→B at 2 h, 1 µM [9] [×10⁻⁶ cm/s] | solubility [10] [µg/mL] | CLint scaled [11] [mL/min/kg] | Compound
1 | Active | Active | Active | > 1000 | > 1000 | 25 | 7 | – | – | – | – | – | COc1ncc(F)cc1C(=O)Nc1cccc(-c2nncn2[C@@H](C)C(F)(F)F)n1
2 | – | – | – | – | – | 13 | 2 | 32 | 6.8 | 3.3 | 4.4 (≈ 10.7 µM) | 36 | CCn1cc(C(=O)Nc2cccc(-c3nncn3[C@@H](C)C(F)(F)F)n2)c(OC)n1
3 | – | – | – | – | – | 9 | 2 | 55 | 5.9 | 3.4 | 1.8 (≈ 4.13 µM) | 5 | COc1nn(CC2CC2)cc1C(=O)Nc1cccc(-c2nncn2[C@@H](C)C(F)(F)F)n1
4 | – | – | – | – | – | 144 | 8 | 20 | 72 | 0.5 | 43 (≈ 116 µM) | 20 | COc1nn(C)cc1C(=O)Nc1cccc(-c2nncn2[C@H]2CCOC2)n1
